Test results: patent US11160782B2, “Method for producing nobiletin-containing solid dispersion” (KAO CORPORATION, priority 2016, dated 2021)

Experiments:
[1] = Solubility in water at 25° C. of the poorly water-soluble raw material; conditions: raw material (poorly water-soluble substance) of the composition
[2] = Transferability of nobiletin into blood circulation during oral administration to mice; assay type: in vivo; conditions: male, C57BL/6J, mouse, 200 mg/kg, plasma
From the text: [Evaluation of Transferability of Nobiletin into Blood Circulation During Oral Administration to Mice]
C57BL/6J mice (male, 6 week-old) were purchased from CLEA Japan, Inc. The mice were habituated to the environment for one week or more, and were fed to a test. Each of the test groups consisted of 8 mice, which was believed to be the minimum number required to ensure the statistical significance of the test system.
Mice were bred in the facility for one week under ad libitum feeding of solid food (CE-s), and the test was performed using the mice. The mice were fasted for 16 hours, and blood was initially collected from the orbital sinus of each mouse under isoflurane anesthesia (heparin-treated micro hematocrit blood collection tube, manufactured by VITREX Medical A/S). Each sample solution was then administrated into the stomach of the mice at a dose of 200 mg/kg weight per mouse using a probe. […]
The collected blood samples were centrifuged at 12,000 rpm for 10 minutes, and 30 μL of plasma in each sample was recovered into an Eppendorf tube. […] The nobiletin concentration in the plasma was measured by LC-MS/MS.
30 μL of acetonitrile was added to 30 μL of the recovered plasma, was stirred with a vortex mixer for 5 seconds, and was centrifuged at 12,000 rpm for 15 minutes at room temperature. […] The nobiletin concentration was then measured by LC-MS/MS.

O=c1oc2c(O)c(O)cc3c(=O)oc4c(O)c(O)cc1c4c23 [Ellagic acid, Ellagic acid dihydrate]
Solubility in water at 25° C. [1]: 4 ppm

COc1ccc(-c2cc(=O)c3c(OC)c(OC)c(OC)c(OC)c3o2)cc1OC [Nobiletin, 3′,4′,5,6,7,8-hexamethoxyflavone]
Solubility in water at 25° C. [1]: 1 ppm | AUC ([2]; read-out: AUC (area under the blood concentration transition curve) (converted)): 5380 ng·h/mL | Cmax ([2]; read-out: Cmax (maximum blood concentration of nobiletin)): 3700 ng/mL

COc1ccc([C@@H]2CC(=O)c3c(O)cc(O[C@@H]4O[C@H](CO[C@@H]5O[C@@H](C)[C@H](O)[C@@H](O)[C@H]5O)[C@@H](O)[C@H](O)[C@H]4O)cc3O2)cc1O [Hesperidin]
Solubility in water at 25° C. [1]: 0.5 ppm
